{
  "source": "ChEMBL document CHEMBL4007467",
  "about": "“Effects of 6-paradol, an unsaturated ketone from gingers, on cytochrome P450-mediated drug metabolism” (Bioorg Med Chem Lett, 2017)",
  "type_in_all_cases": "ADME",
  "key": {"[1]": {"target": "CYP2C9 (Homo sapiens, UniProt P11712)", "sequence (P11712 whole entry)": "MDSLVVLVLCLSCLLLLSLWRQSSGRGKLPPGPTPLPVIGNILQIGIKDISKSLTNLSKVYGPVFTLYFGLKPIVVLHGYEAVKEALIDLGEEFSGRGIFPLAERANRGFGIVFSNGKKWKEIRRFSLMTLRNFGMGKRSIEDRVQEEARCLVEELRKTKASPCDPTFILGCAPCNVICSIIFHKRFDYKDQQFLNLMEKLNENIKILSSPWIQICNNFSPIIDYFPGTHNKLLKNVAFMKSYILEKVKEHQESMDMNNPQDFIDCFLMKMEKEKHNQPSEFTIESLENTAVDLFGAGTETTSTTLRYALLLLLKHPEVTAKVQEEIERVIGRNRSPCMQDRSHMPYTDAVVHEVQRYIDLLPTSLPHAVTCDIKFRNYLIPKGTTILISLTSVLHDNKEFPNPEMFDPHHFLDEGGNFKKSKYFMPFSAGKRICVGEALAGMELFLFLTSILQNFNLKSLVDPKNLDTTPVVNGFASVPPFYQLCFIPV", "test": "Inhibition of CYP2C9 in human liver microsomes assessed as enzyme-mediated metabolite formation at 3 uM using diclofenac as substrate preincubated for 20 mins followed by substrate addition measured after 30 mins in presence of NADPH by LC-MS/MS analysis relative to control", "parameters": "scale not given: the % may be the effect or the level left", "conditions": "probe diclofenac, read-out: Activity"}, "[2]": {"target": "T1, CYP2B6 (Homo sapiens, UniProt P20813)", "T1 sequence (P20813 whole entry)": "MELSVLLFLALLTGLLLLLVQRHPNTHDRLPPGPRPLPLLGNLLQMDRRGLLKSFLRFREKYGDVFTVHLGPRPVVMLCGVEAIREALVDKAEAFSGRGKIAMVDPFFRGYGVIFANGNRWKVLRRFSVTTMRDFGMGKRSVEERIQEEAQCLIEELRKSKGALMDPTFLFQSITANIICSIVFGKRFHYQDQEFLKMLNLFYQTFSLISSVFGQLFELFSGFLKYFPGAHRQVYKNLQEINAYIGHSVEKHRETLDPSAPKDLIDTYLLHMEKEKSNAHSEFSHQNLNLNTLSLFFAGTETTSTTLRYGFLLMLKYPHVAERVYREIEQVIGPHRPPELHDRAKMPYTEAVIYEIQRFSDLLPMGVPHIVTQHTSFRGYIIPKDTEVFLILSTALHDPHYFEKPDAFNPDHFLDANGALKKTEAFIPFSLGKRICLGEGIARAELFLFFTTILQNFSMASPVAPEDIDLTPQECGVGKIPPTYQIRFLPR", "test": "Inhibition of CYP2B6 in human liver microsomes assessed as enzyme-mediated metabolite formation at 10 uM using bupropion as substrate preincubated for 20 mins followed by substrate addition measured after 30 mins in presence of NADPH by LC-MS/MS analysis relative to control", "parameters": "scale not given: the % may be the effect or the level left", "conditions": "probe bupropion, read-out: Activity"}, "[3]": {"target": "T1, CYP2B6", "test": "Inhibition of CYP2B6 in human liver microsomes assessed as enzyme-mediated metabolite formation at 0.3 uM using bupropion as substrate incubated for 5 mins followed by NADPH addition measured after 30 mins by LC-MS/MS analysis relative to control", "parameters": "scale not given: the % may be the effect or the level left", "conditions": "probe bupropion, read-out: Activity"}, "[4]": {"target": "T2, CYP2C19 (Homo sapiens, UniProt P33261)", "T2 sequence (P33261 whole entry)": "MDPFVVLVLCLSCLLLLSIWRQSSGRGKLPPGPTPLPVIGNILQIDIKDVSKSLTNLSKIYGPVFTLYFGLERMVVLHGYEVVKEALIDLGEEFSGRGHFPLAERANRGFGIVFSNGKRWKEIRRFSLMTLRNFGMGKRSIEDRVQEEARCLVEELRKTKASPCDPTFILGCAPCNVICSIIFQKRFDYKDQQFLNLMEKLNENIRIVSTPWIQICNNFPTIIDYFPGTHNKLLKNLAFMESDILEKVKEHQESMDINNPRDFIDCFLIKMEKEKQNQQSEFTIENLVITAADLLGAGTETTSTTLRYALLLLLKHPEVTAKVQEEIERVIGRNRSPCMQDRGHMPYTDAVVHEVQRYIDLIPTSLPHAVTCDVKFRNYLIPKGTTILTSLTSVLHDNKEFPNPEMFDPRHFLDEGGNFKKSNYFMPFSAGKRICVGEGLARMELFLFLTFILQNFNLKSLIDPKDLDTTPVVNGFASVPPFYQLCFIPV", "test": "Inhibition of CYP2C19 in human liver microsomes assessed as enzyme-mediated metabolite formation at 3 uM using (S)-mephenytoin as substrate incubated for 5 mins followed by NADPH addition measured after 30 mins by LC-MS/MS analysis relative to control", "parameters": "scale not given: the % may be the effect or the level left", "conditions": "probe (S)-mephenytoin, read-out: Activity"}, "[5]": {"target": "T3, CYP2C8 (Homo sapiens, UniProt P10632)", "T3 sequence (P10632 whole entry)": "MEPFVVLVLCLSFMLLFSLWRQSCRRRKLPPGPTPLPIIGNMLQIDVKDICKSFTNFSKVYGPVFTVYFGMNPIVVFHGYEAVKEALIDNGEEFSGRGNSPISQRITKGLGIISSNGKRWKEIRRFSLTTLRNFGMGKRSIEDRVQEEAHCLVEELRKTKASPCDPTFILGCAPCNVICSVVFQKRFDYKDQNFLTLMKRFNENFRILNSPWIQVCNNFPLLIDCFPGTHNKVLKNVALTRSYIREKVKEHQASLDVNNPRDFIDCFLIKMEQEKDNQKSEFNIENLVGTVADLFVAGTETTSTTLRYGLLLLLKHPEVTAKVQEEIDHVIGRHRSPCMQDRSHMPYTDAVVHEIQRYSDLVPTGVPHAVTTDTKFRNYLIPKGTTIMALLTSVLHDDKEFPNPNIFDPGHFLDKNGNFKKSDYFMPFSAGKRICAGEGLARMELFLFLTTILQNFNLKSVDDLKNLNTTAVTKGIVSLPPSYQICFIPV", "test": "Inhibition of CYP2C8 in human liver microsomes assessed as enzyme-mediated metabolite formation at 3 uM using paclitaxel as substrate preincubated for 20 mins followed by substrate addition measured after 30 mins in presence of NADPH by LC-MS/MS analysis relative to control", "parameters": "scale not given: the % may be the effect or the level left", "conditions": "probe paclitaxel, read-out: Activity"}, "[6]": {"target": "T2, CYP2C19", "test": "Inhibition of CYP2C19 in human liver microsomes assessed as enzyme-mediated metabolite formation at 30 uM using (S)-mephenytoin as substrate incubated for 5 mins followed by NADPH addition measured after 30 mins by LC-MS/MS analysis relative to control", "parameters": "scale not given: the % may be the effect or the level left", "conditions": "probe (S)-mephenytoin, read-out: Activity"}, "[7]": {"target": "T4, CYP1A2 (Homo sapiens, UniProt P05177)", "T4 sequence (P05177 whole entry)": "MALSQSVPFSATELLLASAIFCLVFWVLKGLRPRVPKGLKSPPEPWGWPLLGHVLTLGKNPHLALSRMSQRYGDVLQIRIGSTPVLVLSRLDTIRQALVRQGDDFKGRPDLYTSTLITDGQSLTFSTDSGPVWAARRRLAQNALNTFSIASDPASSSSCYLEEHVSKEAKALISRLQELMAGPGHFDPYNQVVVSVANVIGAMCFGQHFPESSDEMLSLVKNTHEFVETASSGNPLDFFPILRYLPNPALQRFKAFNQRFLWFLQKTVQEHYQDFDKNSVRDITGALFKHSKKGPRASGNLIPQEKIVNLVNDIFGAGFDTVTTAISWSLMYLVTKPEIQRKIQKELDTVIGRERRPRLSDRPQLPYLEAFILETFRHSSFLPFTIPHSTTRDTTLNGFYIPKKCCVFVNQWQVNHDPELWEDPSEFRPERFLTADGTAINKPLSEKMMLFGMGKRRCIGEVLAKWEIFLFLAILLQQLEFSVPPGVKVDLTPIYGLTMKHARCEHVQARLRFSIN", "test": "Inhibition of CYP1A2 in human liver microsomes assessed as enzyme-mediated metabolite formation at 0.1 uM using phenacetin as substrate preincubated for 20 mins followed by substrate addition measured after 30 mins in presence of NADPH by LC-MS/MS analysis relative to control", "parameters": "scale not given: the % may be the effect or the level left", "conditions": "probe phenacetin, read-out: Activity"}, "[8]": {"target": "Cytochrome P450 3A4 (Homo sapiens, UniProt P08684)", "sequence (P08684 whole entry)": "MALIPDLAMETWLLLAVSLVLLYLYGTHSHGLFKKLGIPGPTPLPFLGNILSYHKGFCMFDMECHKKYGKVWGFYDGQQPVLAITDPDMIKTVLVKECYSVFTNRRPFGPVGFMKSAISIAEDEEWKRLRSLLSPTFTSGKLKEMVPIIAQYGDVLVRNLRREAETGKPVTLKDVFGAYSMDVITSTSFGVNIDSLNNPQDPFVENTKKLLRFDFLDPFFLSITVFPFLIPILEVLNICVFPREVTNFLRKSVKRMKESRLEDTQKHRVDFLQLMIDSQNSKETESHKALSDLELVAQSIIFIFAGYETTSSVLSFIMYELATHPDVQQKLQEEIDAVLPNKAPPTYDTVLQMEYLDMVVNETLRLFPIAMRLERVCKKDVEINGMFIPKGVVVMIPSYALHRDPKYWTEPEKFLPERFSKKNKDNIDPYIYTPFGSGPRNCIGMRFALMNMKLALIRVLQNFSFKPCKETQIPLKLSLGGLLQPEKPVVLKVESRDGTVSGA", "test": "Inhibition of CYP3A4 in human liver microsomes using midazolam as substrate preincubated for 20 mins followed by substrate addition measured after 30 mins in presence of NADPH by LC-MS/MS analysis"}, "[9]": {"target": "T5, Cytochrome P450 2C8 (Homo sapiens, UniProt P10632)", "T5 sequence (P10632 whole entry)": "T3 sequence (P10632 whole entry)", "test": "Inhibition of CYP2C8 in human liver microsomes assessed as enzyme-mediated metabolite formation using paclitaxel as substrate incubated for 5 mins followed by NADPH addition measured after 30 mins by LC-MS/MS analysis"}, "[10]": {"target": "T4, CYP1A2", "test": "Inhibition of CYP1A2 in human liver microsomes assessed as enzyme-mediated metabolite formation at 10 uM using phenacetin as substrate preincubated for 20 mins followed by substrate addition measured after 30 mins in presence of NADPH by LC-MS/MS analysis relative to control", "parameters": "scale not given: the % may be the effect or the level left", "conditions": "probe phenacetin, read-out: Activity"}, "[11]": {"target": "T2, CYP2C19", "test": "Inhibition of CYP2C19 in human liver microsomes assessed as enzyme-mediated metabolite formation at 10 uM using (S)-mephenytoin as substrate incubated for 5 mins followed by NADPH addition measured after 30 mins by LC-MS/MS analysis relative to control", "parameters": "scale not given: the % may be the effect or the level left", "conditions": "probe (S)-mephenytoin, read-out: Activity"}, "[12]": {"target": "T1, CYP2B6", "test": "Inhibition of CYP2B6 in human liver microsomes assessed as enzyme-mediated metabolite formation at 30 uM using bupropion as substrate incubated for 5 mins followed by NADPH addition measured after 30 mins by LC-MS/MS analysis relative to control", "parameters": "scale not given: the % may be the effect or the level left", "conditions": "probe bupropion, read-out: Activity"}, "[13]": {"target": "T4, CYP1A2", "test": "Inhibition of CYP1A2 in human liver microsomes assessed as enzyme-mediated metabolite formation at 1 uM using phenacetin as substrate incubated for 5 mins followed by NADPH addition measured after 30 mins by LC-MS/MS analysis relative to control", "parameters": "scale not given: the % may be the effect or the level left", "conditions": "probe phenacetin, read-out: Activity"}},
  "data": [
    {"smiles": "CCCCCCCC(=O)CCc1ccc(O)c(OC)c1", "values": [
      {"measurement": "activity at 0.5 h, 3 µM", "setting": "[1]", "result": 78.8, "unit": "%"},
      {"measurement": "activity at 0.5 h, 10 µM", "setting": "[2]", "result": 54.3, "unit": "%"},
      {"measurement": "activity at 0.5 h, 0.3 µM", "setting": "[3]", "result": 68.8, "unit": "%"},
      {"measurement": "activity at 0.5 h, 3 µM", "setting": "[4]", "result": 78.6, "unit": "%"},
      {"measurement": "activity at 0.5 h, 3 µM", "setting": "[5]", "result": 56.6, "unit": "%"},
      {"measurement": "activity at 0.5 h, 30 µM", "setting": "[6]", "result": 42, "unit": "%"},
      {"measurement": "activity at 0.5 h, 0.1 µM", "setting": "[7]", "result": 97.2, "unit": "%"},
      {"measurement": "IC50", "setting": "[8]", "result": "> 30", "unit": "µM"},
      {"measurement": "IC50", "setting": "[9]", "result": 5.1, "unit": "µM"},
      {"measurement": "activity at 0.5 h, 10 µM", "setting": "[10]", "result": 59, "unit": "%"},
      {"measurement": "activity at 0.5 h, 10 µM", "setting": "[11]", "result": 51.5, "unit": "%"},
      {"measurement": "activity at 0.5 h, 30 µM", "setting": "[12]", "result": 37, "unit": "%"},
      {"measurement": "activity at 0.5 h, 1 µM", "setting": "[13]", "result": 79.2, "unit": "%"}
    ]}
  ]
}
